Earlier results on 1 compound are cited in patent publication US20060211766A1, “Gelled immunomodulating topical compositions and a method of treating warts and other human papilloma virus skin infections” (priority 2004, published 2006).

In this data set the test system is rodents. The settings on record: in rodents.

Take `CC(C)=O` [Acetone]: the LD/50 is 10.7 mg per kilogram.
